PubChem BioAssay (NCI)
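Each compound was tested at five concentrations against cells in 96-well plates for 48 hours. GI50 = concentration required for 50% inhibition of growth. Definition used: TGI = concentration required for complete inhibition of growth.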

Experiments:
Assay in all cases: NCI anticancer screen, dose series, 48 h
[1] = system: A549 NSCLC
[2] = system: CAKI-1 renal
[3] = system: HCC-2998 colon
[4] = system: HT29 colon
[5] = system: NCI-H460 lung
[6] = system: OVCAR-3 ovarian
[7] = system: SK-MEL-2 melanoma
[8] = system: SK-OV-3 ovarian
[9] = system: SN12C renal
[10] = system: UACC-257 melanoma

Structure (SMILES)	GI50 [1]	TGI [1] [µM]	GI50 [2] [µM]	TGI [2] [µM]	GI50 [3]	TGI [3]	GI50 [4] [µM]	TGI [4] [µM]	GI50 [5]	TGI [5] [µM]	GI50 [6]	TGI [6] [µM]	GI50 [7]	TGI [7] [µM]	GI50 [8]	TGI [8] [µM]	GI50 [9]	TGI [9] [µM]	GI50 [10] [µM]	TGI [10] [µM]
N#Cc1ccc(OC(=O)Nc2ccc(Cl)c(Cl)c2)cc1	3.43 µM	> 100	3.4	18.2	4.79 µM	26.5 µM	3.35	28.6	2.87 µM	9.34	3.01 µM	9.1	4.13 µM	18	5.98 µM	51.2	3.09 µM	25.8	4.07	23.9
COC(=O)c1cccc2cccc(C(=O)Nc3ccc(Cl)cc3)c12	–	> 100	–	> 100	–	> 100 µM	–	> 100	–	> 100	–	> 100	–	> 100	–	> 100	–	> 100	–	> 100
CCCCCc1ccc(S(=O)(=O)Nc2cc(-c3csc(NC(C)=O)n3)ccc2N2CCN(C)CC2)cc1	5.11 µM	11.8	4.84	9.48	1.62 µM	5.47 µM	1.99	8.29	4.77 µM	9.9	4.92 µM	9.64	5.76 µM	12.6	5.95 µM	11.5	4.7 µM	9.25	4.48	11.4
CCC(=O)Nc1ccc(N=NN(C)C)cc1	–	> 100	–	–	–	6.64 µM	–	> 100	–	> 100	–	–	–	> 100	–	> 100	–	> 100	–	> 100
CC1C(=O)OC2CC[N+]3([O-])CC=C(COC(=O)C(C)(O)C1(C)O)C23 (stereo not drawn)	–	> 100	–	> 100	–	> 100 µM	–	> 100	–	> 100	–	> 100	–	> 100	–	> 100	–	> 100	–	> 100
COC(C(=O)[C@@H](O)[C@@H](C)O)[C@@H]1Cc2cc3cc(O[C@H]4C[C@@H](O[C@H]5C[C@@H](O)[C@H](O)C(C)O5)[C@H](O)C(C)O4)c(C)c(O)c3c(O)c2C(=O)[C@H]1O[C@H]1C[C@@H](O[C@H]2C[C@@H](O[C@H]3C[C@@H](O)[C@H](OC)C(C)O3)[C@@H](O)C(C)O2)[C@H](O)C(C)O1 (stereo partly drawn)	–	> 33.3	0.601	> 33.3	0.0293 µM	0.114 µM	–	0.131	0.0132 µM	> 33.3	0.0212 µM	1.04	–	0.0392	–	> 33.3	–	> 33.3	0.013	0.101
O=S1(=O)OCCOS(=O)(=O)C1Cl	–	> 100	–	> 100	–	> 100 µM	–	> 100	–	–	–	> 100	–	> 100	–	> 100	–	> 100	–	> 100
CC(C(=O)n1c2ccccc2c2ccccc21)N(c1ccccc1)c1ccccc1 (stereo not drawn)	–	38.5	–	27.7	–	30.1 µM	–	37.7	–	> 100	–	31.7	–	28.4	–	36.2	–	41.4	–	32.3
OCCNCCOc1ccc(/C(=C(/Cl)c2ccccc2)c2ccccc2)cc1	–	12.8	–	25.7	–	–	–	10	–	18.2	–	24.8	–	26.4	–	10.4	–	19.7	–	12
COc1cc(C2C(C(=O)Nc3cc(F)c(F)cc3F)=C(C)NC(C)=C2C(=O)Nc2cc(F)c(F)cc2F)ccc1O	–	95.8	–	42.8	–	33.4 µM	–	> 100	–	> 100	–	38	–	79.1	–	–	–	84.5	–	54.8
CC1=CC(=O)C(C(O)(C(F)(F)F)C(F)(F)F)C(C)(C)C1 (stereo not drawn)	–	> 10	–	> 10	–	> 10 µM	–	> 10	–	> 10	–	> 10	–	> 10	–	> 10	–	> 10	–	> 10
Cc1cc(C(C)(C)C)cc(Cc2cc(C(C)(C)C)cc(Cc3cc(C(C)(C)C)cc(C)c3O)c2O)c1O	–	18.7	–	25.6	–	–	–	24	–	21.8	–	16.5	–	22.3	–	27.9	–	33.6	–	20.8
O=C(OCC(OC(=O)c1ccccc1)C(OC(=O)c1ccccc1)C(OC(=O)c1ccccc1)c1cnn(-c2ccccc2)n1)c1ccccc1 (stereo not drawn)	–	> 100	–	> 100	–	> 100 µM	–	> 100	–	> 100	–	> 100	–	–	–	> 100	–	> 100	–	> 100
O=[N+]([O-])c1ccc(CSCc2ccc(Cl)cc2)cc1	–	> 100	–	> 100	–	–	–	> 100	–	> 100	–	> 100	–	> 100	–	> 100	–	> 100	–	> 100
CC(=O)OCCOCNC(=S)N/N=C/c1ccc(Br)s1	–	> 100	–	–	–	> 100 µM	–	> 100	–	> 100	–	> 100	–	> 100	–	> 100	–	> 100	–	> 100
COc1cc(C(=O)C/C(CCC(=O)Nc2ccc(Cl)cc2Cl)=N/NC(=O)C(=O)NN)ccc1O	–	> 100	–	> 100	–	> 100 µM	–	> 100	–	> 100	–	> 100	–	–	–	> 100	–	> 100	–	> 100
c1ccc(CSc2nc3ccccc3nc2-c2cccs2)cc1	–	> 100	–	–	–	> 100 µM	–	> 100	–	> 100	–	> 100	–	> 100	–	> 100	–	> 100	–	> 100
Clc1cc(Cl)cc(Nc2ccc3cc(OCCCN4CCOCC4)ccc3n2)c1	3.93 µM	> 100	–	–	1.73 µM	3.31 µM	1.56	3.74	–	–	2.36 µM	6.4	2.7 µM	6.97	2.62 µM	7.24	3.46 µM	> 100	1.96	4.34
O=c1nc(-c2ccccc2)cc(-c2ccccc2O)[nH]1	–	> 100	–	> 100	–	> 100 µM	–	> 100	–	> 100	–	> 100	–	–	–	> 100	–	> 100	–	> 100

Structure (SMILES)	GI50 [1]	TGI [1] [µM]	GI50 [2] [µM]	TGI [2] [µM]	GI50 [3]	TGI [3]	GI50 [4] [µM]	TGI [4] [µM]	GI50 [5]	TGI [5] [µM]	GI50 [6]	TGI [6] [µM]	GI50 [7]	TGI [7] [µM]	GI50 [8]	TGI [8] [µM]	GI50 [9]	TGI [9] [µM]	GI50 [10] [µM]	TGI [10] [µM]
Cc1cccc(C)c1NC(=O)C(=O)CC(=O)c1cccc([N+](=O)[O-])c1	–	> 100	–	> 100	–	–	–	> 100	–	> 100	–	> 100	–	> 100	–	–	–	> 100	–	> 100
O=C1C(Cl)=C(Nc2ccccc2O)C(=O)N1Cc1ccccc1	20.3 µM	46	26	68.7	20.9 µM	35.3 µM	–	–	21 µM	42.5	18 µM	31.9	30.9 µM	96	28.5 µM	71.9	16.4 µM	29.9	–	–
O=C(O)CN(c1ccccc1)S(=O)(=O)c1ccc([N+](=O)[O-])cc1	–	> 100	–	> 100	–	–	–	> 100	–	> 100	–	> 100	–	> 100	–	> 100	–	> 100	–	> 100
O=C1CSC(c2ccc(-c3nc4ccccc4s3)cc2)=N1	43.9 µM	> 100	17.4	> 100	25.9 µM	78.5 µM	–	–	30.2 µM	74.5	16 µM	55	40.9 µM	> 100	53.2 µM	> 100	36.9 µM	99.4	30.8	75.7
Clc1ccc(N=CNc2ccc(-c3nc4ccccc4o3)cc2)cc1	38 µM	> 100	15.5	39.2	–	–	–	–	17.1 µM	40.3	11.2 µM	25.3	30 µM	> 100	28.6 µM	> 100	36.7 µM	> 100	32.4	> 100
C=CCN1CC2CON(C(=O)C(OC)(c3ccccc3)C(F)(F)F)C2C1C(C)C (stereo not drawn)	34.6 µg/mL	–	–	–	18.1 µg/mL	38.8 µg/mL	–	–	28.9 µg/mL	–	36.3 µg/mL	–	27.8 µg/mL	–	40.2 µg/mL	–	41.9 µg/mL	–	–	–
CCOC(=O)/C(=C/c1cccc(C#N)c1)N(CC)CC	–	> 100	–	> 100	–	> 100 µM	–	> 100	–	> 100	–	–	–	> 100	–	> 100	–	> 100	–	> 100
O=C(O)C12CC3(C(=O)O)CC(C(=O)O)(CC(C(=O)O)(C1)C3=O)C2=O	–	> 100	–	> 100	–	–	–	> 100	–	> 100	–	> 100	–	> 100	–	> 100	–	> 100	–	> 100
N#CC(C(=O)CCC(=O)Nc1cccc(C(F)(F)F)c1)c1ccc(Cl)cc1 (stereo not drawn)	–	> 100	–	> 100	–	> 100 µM	–	> 100	–	> 100	–	> 100	–	–	–	> 100	–	> 100	–	> 100
Nc1ccc2[nH]cc(CCC(=O)O)c2c1	–	> 100	–	> 100	–	–	–	> 100	–	–	–	> 100	–	> 100	–	> 100	–	> 100	–	> 100
Nc1nc(N)c2cc(CNc3ccc(C(=O)NC(CC(=O)O)C(=O)O)c(Cl)c3)ccc2n1 (stereo not drawn)	0.05 µM	> 500	0.05	> 500	–	> 77.5 µM	0.05	> 500	0.05 µM	72.6	177 µM	> 500	> 500 µM	> 500	74.7 µM	> 500	0.05 µM	> 500	–	–
COC(=O)CCC1=C(CC(=O)OC)C(C)=N/C1=C\c1[nH]c(-c2ccc[nH]2)cc1OC	3.34 µM	13	3.07	11.6	3.46 µM	15.6 µM	0.557	10.3	3.72 µM	13.7	2.43 µM	10.2	–	–	13.3 µM	28.4	11.1 µM	24.9	4.47	17
COc1ccc2c3c(Nc4ccc(/C(C)=N/O)cc4)[nH]c4ccccc4c-3c(N=O)c2c1	1.45 µM	6.08	2.65	6.01	1.78 µM	3.27 µM	19.6	33.7	29.5 µM	> 100	–	–	18.4 µM	40.6	–	–	7.06 µM	23	3.08	8.56
Oc1ccc(Br)cc1C=Nc1ccc(N=Cc2cc(Br)ccc2O)cc1	–	> 100	–	> 100	–	> 100 µM	–	> 100	–	> 100	–	–	–	> 100	–	> 100	–	> 100	–	> 100
Cc1ncc([N+](=O)[O-])n1CCNS(=O)(=O)CCCn1ncnc1[N+](=O)[O-]	–	> 100	–	> 100	–	–	–	> 100	–	> 100	–	> 100	–	> 100	–	> 100	–	> 100	–	> 100
CN(C)CCSc1nccc(-c2cc3ccccc3s2)n1	–	36.6	–	56.7	–	29.3 µM	–	24.3	–	28	–	> 100	–	33.5	–	94.9	–	> 100	–	–
Cn1cc(-c2ccc(-c3cncc(Cl)c3N3CCC4(CCNC4=O)CC3)cc2)cn1	29 µM	> 100	–	–	> 100 µM	> 100 µM	16.9	> 100	69.1 µM	> 100	34.3 µM	> 100	24.7 µM	> 100	41.6 µM	> 100	63.2 µM	> 100	> 100	> 100
S=C1SC2=Nc3ccccc3CN2C2=NCCN12	> 100 µM	> 100	> 100	> 100	> 100 µM	> 100 µM	34.7	> 100	> 100 µM	> 100	80.8 µM	> 100	–	–	> 100 µM	> 100	> 100 µM	> 100	> 100	> 100
